Values joined by “and” are separate entries in the source; they are usually repeats but may differ in a detail not shown here. Equal values may be shown once.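 Tested at 5 concentrations; 48 h exposure; 96-well plates; endpoints linearly interpolated, else capped at highest concentration. Abbreviation: GI50, concentration required for 50% inhibition of growth. At the TGI there is no net growth.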
Legend:
Assay in all cases: growth of human tumour cells (NCI), 48 h
ACHN renal = system: ACHN renal
TK-10 renal = system: TK-10 renal
NCI-H460 lung = system: NCI-H460 lung
U251 CNS = system: U251 CNS
SNB-75 CNS = system: SNB-75 CNS
SN12C renal = system: SN12C renal
SF-295 CNS = system: SF-295 CNS
RPMI-8226 leukemia = system: RPMI-8226 leukemia
SK-OV-3 ovarian = system: SK-OV-3 ovarian
PC-3 prostate = system: PC-3 prostate
BT-549 breast = system: BT-549 breast
SF-539 CNS = system: SF-539 CNS
NCI/ADR-RES ovarian = system: NCI/ADR-RES ovarian
NCI-H23 lung = system: NCI-H23 lung
IGROV1 ovarian = system: IGROV1 ovarian
HL-60(TB) leukemia = system: HL-60(TB) leukemia
T-47D breast = system: T-47D breast
786-0 renal = system: 786-0 renal
HS 578T breast = system: HS 578T breast
HCC-2998 colon = system: HCC-2998 colon
MDA-N = system: MDA-N
MCF7 breast = system: MCF7 breast
MDA-MB-231 breast = system: MDA-MB-231 breast
HCT-116 colon = system: HCT-116 colon
LOX IMVI melanoma = system: LOX IMVI melanoma
OVCAR-5 ovarian = system: OVCAR-5 ovarian
HOP-92 NSCLC = system: HOP-92 NSCLC
SR leukemia = system: SR leukemia
EKVX NSCLC = system: EKVX NSCLC
UO-31 renal = system: UO-31 renal

With `CC1OC(OC2C(OC(=O)[C@]34CCC(C)(C)C[C@H]3C3=CC[C@@H]5[C@@]6(C)CC[C@H](OC7OC(C(=O)O)C(O)C(OC8OCC(O)C(O)C8O)C7O)C(C)(C)[C@@H]6CC[C@@]5(C)[C@]3(C)CC4)OCC(O)C2O)C(O)C(OC2OCC(O)C(O)C2O)C1OC1OCC(O)C(OC2OCC(O)C(O)C2O)C1O` (stereo not given in full) the TGI (ACHN renal) was 19.6 µM and 25.1 µM, the TGI (TK-10 renal) was 24 µM and the GI50 (NCI-H460 lung) was 49.5 µM and > 100 µM. The TGI (NCI-H460 lung) was > 100 µM, the GI50 (U251 CNS) was 10.9 µM and 24.2 µM and the TGI (U251 CNS) was 24.8 µM and 62 µM. For the same compound, the TGI (SNB-75 CNS) was 29.8 µM and 39.3 µM, the GI50 (SN12C renal) was 2.85 µM and 8.35 µM and the TGI (SN12C renal) was 7.2 µM and 21.6 µM. For the same compound, the GI50 (SF-295 CNS) was 5.98 µM and 15.4 µM, the TGI (SF-295 CNS) was 18.9 µM and 30.2 µM and the GI50 (RPMI-8226 leukemia) was 5.62 µM and 16.9 µM. For the same compound, the TGI (RPMI-8226 leukemia) was 19.8 µM and 35.3 µM, the GI50 (SK-OV-3 ovarian) was 15.4 µM and 37.2 µM and the TGI (SK-OV-3 ovarian) was 33.7 µM and > 100 µM. The TGI (PC-3 prostate) was 21.7 µM and 23.1 µM, the GI50 (BT-549 breast) was 9.13 µM and 20.3 µM and the TGI (BT-549 breast) was 25.6 µM and 46.8 µM. The TGI (SF-539 CNS) was 68.7 µM, the TGI (NCI/ADR-RES ovarian) was 24.4 µM and 67.7 µM and the TGI (NCI-H23 lung) was 21.7 µM and 33 µM. For the same compound, the GI50 (IGROV1 ovarian) was 11.8 µM and 30.9 µM, the TGI (IGROV1 ovarian) was 32.6 µM and > 100 µM and the GI50 (HL-60(TB) leukemia) was 2.28 µM and 12.6 µM. The TGI (HL-60(TB) leukemia) was 6.18 µM and 29.5 µM, the GI50 (T-47D breast) was 9.59 µM and 38.3 µM and the TGI (T-47D breast) was 51.8 µM and > 100 µM. For the same compound, the TGI (786-0 renal) was 25.7 µM and 43 µM, the TGI (HS 578T breast) was 37.9 µM and 62.4 µM and the TGI (HCC-2998 colon) was 4.13 µM and 11.9 µM. For the same compound, the GI50 (MDA-N) was 7.14 µM and 16.4 µM, the TGI (MDA-N) was 19.8 µM and 31.8 µM and the TGI (MCF7 breast) was 50.7 µM and > 100 µM. The TGI (MDA-MB-231 breast) was 14.2 µM and 12.9 µM, the GI50 (HCT-116 colon) was 8.78 µM and 22.9 µM and the TGI (HCT-116 colon) was 62.5 µM and > 100 µM. The TGI (LOX IMVI melanoma) was 26.3 µM and 35.5 µM, the GI50 (OVCAR-5 ovarian) was 7.26 µM and 17.7 µM and the TGI (OVCAR-5 ovarian) was 20.3 µM and 32.4 µM. The GI50 (HOP-92 NSCLC) was 6.12 µM and 13 µM, the TGI (HOP-92 NSCLC) was 17.4 µM and 26.6 µM and the GI50 (SR leukemia) was 2.83 µM and 11.1 µM. The TGI (SR leukemia) was 8.95 µM and 26.8 µM, the TGI (EKVX NSCLC) was 22.6 µM and 35.7 µM and the GI50 (UO-31 renal) was 2.12 µM and 9 µM.

— PubChem BioAssay (NCI)
